Counter-ions that a name gives are not always drawn.
Legend:
Format in all cases: physicochemical
[1] = Study on stability (high temperature, high moisture, light; purity by HPLC and XRD); conditions: for XRD: compared with the XRD pattern at Day 0
Description: The Crystal form A of the maleate of the compound of Formula (1) and the hydrochloride of the compound of Formula (1) were kept at 70° C. for 3 d, and the samples were taken at Day 1 and Day 3, respectively, and were tested for purity and XRD, which were compared with those of the sample at Day 0.
The Crystal form A of the maleate of the compound of Formula (1) was kept under conditions of high moisture (25° C., RH92.5%) for 5 d, or under condition of light (4500LX±500LX) for 10 d, and was tested for purity and XRD, which were compared with those of the sample at Day 0.
Purity measurement: measurement was performed in accordance with High Performance Liquid Chromatography in Appendix II V D in Pharmacopoeia of the People's Republic of China (2010) Volume II.
XRD test: the same as described in Example 1.

[2] = Study on solubility (HPLC)
Description: measurement was performed in accordance with High Performance Liquid Chromatography in Appendix II V D in Pharmacopoeia of the People's Republic of China (2010) Volume II.

[3] = Study on hygroscopicity (pharmaceutical hygroscopicity test, General Rule 9103 ChP 2015)
Description: measurement was performed in accordance with the Guidelines for pharmaceutical hygroscopicity test in General Rule 9103 of Pharmacopoeia of the People's Republic of China (2015) Volume IV.

## COc1cc2ncnc(Nc3ccc(F)c(Cl)c3)c2cc1NC(=O)/C=C/CN1CC2(CCC2)C1 [Crystal form A of the maleate of the compound of Formula (1)] [(E)-N-(4-((3-chloro-4-fluorophenyl)amino)-7-methoxylquinazolin-6-yl)-4-(2-azaspiro[3.3]heptan-2-yl)-2-butenamide]
[1]; 25° C., RH92.5%, standing time 0 d
  purity (%): 98.6%
[1]; 25° C., RH92.5%, standing time 5 d
  purity (%): 98.4%
[1]; 70° C., 1 d
  XRD: the same as
[1]; 70° C., 3 d
  XRD: the same as
[1]; 70° C., standing time 0 d
  purity (%): 98.4%
[1]; 70° C., standing time 1 d
  purity (%): 98.0%
[1]; 70° C., standing time 3 d
  purity (%): 97.4%
[1]; light 4500LX ± 500LX, 10 d
  XRD: the same as
[1]; light 4500LX ± 500LX, standing time 0 d
  purity (%): 98.6%
[1]; light 4500LX ± 500LX, standing time 10 d
  purity (%): 98.4%
[1]; light (4500LX±500LX) 10 d, high moisture (25° C., RH92.5%) 5 d, or high temperature (70° C.) 3 d
  change in purity: No apparent change in purity
[2]; H2O
  solubility: 4411.5 µg/mL
[2]; pH of solution 1.0
  solubility: 20277.8 µg/mL
[2]; pH of solution 4.5
  solubility: 9748.4 µg/mL
[2]; pH of solution 6.5
  solubility: 89.1 µg/mL
[2]; pH of solution 7.4
  solubility: 68.9 µg/mL
[2]; under various pH conditions
  solubility compared with the hydrochloride: higher solubility
[3]
  Hygroscopic weight gain(%): 0.07%
  Hygroscopicity result: No or almost no
  hygroscopicity compared with the hydrochloride: lower hygroscopicity

## COc1cc2ncnc(Nc3ccc(F)c(Cl)c3)c2cc1NC(=O)/C=C/CN1CC2(CCC2)C1 [Hydrochloride of the compound of Formula (1)] [(E)-N-(4-((3-chloro-4-fluorophenyl)amino)-7-methoxylquinazolin-6-yl)-4-(2-azaspiro[3.3]heptan-2-yl)-2-butenamide]
[1]; 70° C., standing time 0 d
  purity (%): 98.4%
[1]; 70° C., standing time 1 d
  purity (%): 92.5%
[1]; 70° C., standing time 3 d
  purity (%): 89.0%
[1]; high temperature (70° C.) for 3 d
  decrease in purity: 9.4%
[2]; H2O
  solubility: 2200.6 µg/mL
[2]; pH of solution 1.0
  solubility: 3255.8 µg/mL
[2]; pH of solution 4.5
  solubility: 1883.0 µg/mL
[2]; pH of solution 6.5
  solubility: 17.6 µg/mL
[2]; pH of solution 7.4
  solubility: 11.2 µg/mL
[3]
  Hygroscopic weight gain(%): 7.8%

Source: US11111234B2, “Salt of a quinazoline derivative-like tyrosine kinase inhibitor and crystal form thereof” (Xuanzhu Pharma Co., Ltd., priority 2016, dated 2021)
